# From patent publication US20230287003A1, “BCL6 INHIBITORS” (Cancer Research Technology Limited, priority 2018, published 2023)
# Tests used:
# [1] = molecular target: BCL6-NCOR2(SMRT) corepressor protein-protein interaction (Homo sapiens (Human), UniProt P41182); test: NanoBRET cell assay; type: cell-based; details: for IC50: read-out: NanoBRET cell avg pIC50 (converted); for NanoBRET cell avg pIC50: HEK293T cells co-transfected with BCL6-nanoLuc and NCOR2-HaloTag, 6 hr incubation
# From the text: At 20 hr post-transfection, cells were collected, washed with PBS, and exchanged into media containing phenol red-free OptiMEM+4% FBS (Life Technology).
# [2] = molecular target: human BCL6 BTB domain (Trx-6×His-BCL6) / BCOR-AF633 peptide (Homo sapiens (Human), UniProt P41182); test: HTRF assay; type: binding; details: 1 nM Trx-6×His-BCL6, 300 nM BCOR-AF633 peptide, 2 hours incubation
# [3] = molecular target: endogenous BCL6 protein in SUDHL-4 cells (Homo sapiens (Human), UniProt P41182); test: Immunofluorescence-based BCL6 degradation assay (SUDHL4); type: cell-based; details: 2 hours with compound, DC50 = concentration at which 50% of endogenous BCL6 protein is degraded
# Protocol: DC50 values (compound concentration at which 50% of endogenous BCL6 protein is degraded) were determined in SUDHL-4 cells (American Type Culture Collection) in an immunofluorescence-based assay using an InCell2200 high content imaging system (GE Healthcare). Briefly, 40 μL of lymphoma suspension cells cultured in RPMI 1640-10% FBS (Sigma-Aldrich or PAN Biotech UK Ltd) were platted on fibronectin (Sigma catalogue F1141)-coated 384 well Cell Carrier Ultra plate (Perkin Elmer catalogue 6057300) at 1.2 104 cells/well. After 20 hours cell culture at 37° C./CO2 incubator, compounds were dispensed in the cell culture plate using ECHO550 acoustic dispenser (Labcyte, Inc.), as 8 point-concentration response (ranging from 5 nM to 10 μM) in 0.67% final DMSO concentration. Cells were incubated with compound for 2 hours at 37° C./CO2 incubator followed by fixation in 4.5% formaldehyde (37% formaldehyde solution, Sigma catalogue F8775) at room temperature for 15 min. After fixing, cells were washed in 1×TBS (Tris Buffer Saline) using a Power Washer 384 (Tecan Group Ltd). Blocking and cell permeabilisation were performed by incubating the fixed cells for 1 hour at room temperature in 1×TBS, 5% BSA, 1% Triton X100, followed by three washes on PW384 plate washer. Primary and secondary antibodies were prepared in 1×TBS, 1% BSA, 0.2% Triton X100. BCL6 expression was detected by incubating the cells for 1 h 30 with BCL6 rabbit polyclonal antibody (Sigma Catalogue HPA004899) at 1:250, 0.8 μg/ml, followed by 1 hour in chicken anti-Rabbit Alexa 488 conjugated antibody (Life Technology) at 1:500. After incubation in each antibody, cells were washes four times in 1×TBS-0.05% tween on PW384 plate washer. Cells were finally incubated for 60 min with nuclear staining RedDot2 dye (Biotium) at 0.5× the stock concentration in 1×TBS. BCL6 expression in the absence or presence of compound was detected on InCell2200 with 20× objective and quantified on InCell Analyser 3.7.2 workstation (GE Healthcare). The % response at each concentration was calculated by normalising BCL6 expression in the presence of compound to the appropriate high (DMSO) and low (DMSO with 7 μM of a control compound (5-((5-chloro-2-((3R,5S)-4,4-difluoro-3,5-dimethylpiperidin-1-yl)pyrimidin-4-yl)amino)-3-(3-hydroxy-3-methylbutyl)-1-methyl-1,3-dihydro-2H-benzo[d]imidazol-2-one)) controls.
Compound,IC50 [1],HTRF avg pIC50 (1 nM) [2],SUDHL4 avg pDC50 [3],IC50 ([2]; HTRF avg pIC50 (1 nM)),NanoBRET cell avg pIC50 [1]
"C[C@@H]1C[C@H](C)CN(c2ncc(Cl)c(Nc3ccc4c(c3)c3c(c(=O)n4C)OCC[C@H](C)N3)n2)C1 [Example 5e, (S)-10-((5-chloro-2-((3R,5S)-3,5-dimethylpiperidin-1-yl)pyrimidin-4-yl)amino)-2,7-dimethyl-1,2,3,4-tetrahydro-[1,4]oxazepino[2,3-c]quinolin-6(7H)-one]",5250 nM,6.18,6.22,–,–
"C[C@@H]1CN(c2ncc(Cl)c(Nc3ccc4c(c3)c3c(c(=O)n4C)OCC[C@H](C)N3)n2)C[C@H](C)C1(F)F [Example 5f, (S)-10-((5-chloro-2-((3S,5R)-4,4-difluoro-3,5-dimethylpiperidin-1-yl)pyrimidin-4-yl)amino)-2,7-dimethyl-1,2,3,4-tetrahydro-[1,4]oxazepino[2,3-c]quinolin-6(7H)-one]",6170 nM,6.07,6.63,–,–
"C[C@@H]1CN(c2ncc(Cl)c(Nc3ccc4c(c3)c3c(c(=O)n4C)OCC[C@H](C4CC4)N3)n2)C[C@H](C)C1(F)F [Example 5i, (R)-10-((5-chloro-2-((3S,5R)-4,4-difluoro-3,5-dimethylpiperidin-1-yl)pyrimidin-4-yl)amino)-2-cyclopropyl-7-methyl-1,2,3,4-tetrahydro-[1,4]oxazepino[2,3-c]quinolin-6(7H)-one]",–,6.70,6.79,–,–
"Cn1c(=O)c2c(c3cc(Nc4nc(N5CCC(F)(F)CC5)ncc4Cl)ccc31)N[C@@H](C1CC1)CCO2 [Example 5m, (R)-10-((5-chloro-2-(4,4-difluoropiperidin-1-yl)pyrimidin-4-yl)amino)-2-cyclopropyl-7-methyl-1,2,3,4-tetrahydro-[1,4]oxazepino[2,3-c]quinolin-6(7H)-one]",–,6.93,6.84,–,–
"C[C@@H]1CN(c2ncc(Cl)c(Nc3ccc4[nH]c(=O)c5c(c4c3)N[C@@H](C3CC3)CCO5)n2)C[C@H](C)C1(F)F [Example 5p, (R)-10-((5-chloro-2-((3S,5R)-4,4-difluoro-3,5-dimethylpiperidin-1-yl)pyrimidin-4-yl)amino)-2-cyclopropyl-1,2,3,4-tetrahydro-[1,4]oxazepino[2,3-c]quinolin-6(7H)-one]",–,6.24,6.87,–,–
"C[C@@H]1CN(c2ncc(Cl)c(Nc3cnc4c(c3)c3c(c(=O)n4C)OCC[C@H](C4CC4)N3)n2)C[C@H](C)C1(F)F [Example 5t, (R)-10-((5-chloro-2-((3S,5R)-4,4-difluoro-3,5-dimethylpiperidin-1-yl)pyrimidin-4-yl)amino)-2-cyclopropyl-7-methyl-1,2,3,4-tetrahydro-[1,4]oxazepino[2,3-c][1,8]naphthyridin-6(7H)-one]",–,6.61,6.54,–,–
"C[C@@H]1CN(c2ncc(Cl)c(Nc3ccc4c(c3)c3c(c(=O)n4C)C(=O)OC[C@H](C)N3)n2)C[C@H](C)C1(F)F [Example 8c, (S)-10-((5-chloro-2-((3S,5R)-4,4-difluoro-3,5-dimethylpiperidin-1-yl)pyrimidin-4-yl)amino)-2,7-dimethyl-2,3-dihydro-[1,4]oxazepino[6,5-c]quinoline-5,6(1H,7H)-dione]",17800 nM,6.80,6.78,–,–
"C[C@@H]1C[C@H](C)CN(c2ncc(Cl)c(Nc3ccc4c(c3)c3c(c(=O)n4C)C(=O)OC[C@H](C)N3)n2)C1 [Example 8g, (S)-10-((5-chloro-2-((3R,5S)-3,5-dimethylpiperidin-1-yl)pyrimidin-4-yl)amino)-2,7-dimethyl-2,3-dihydro-[1,4]oxazepino[6,5-c]quinoline-5,6(1H,7H)-dione]",13500 nM,6.55,6.50,–,–
"Cn1c(=O)c2c(c3cc(Nc4nc(N5C6CCC5CS(=O)(=O)C6)ncc4Cl)ccc31)N[C@@H](C1CC1)CCO2 [Example 12j, (R)-10-((5-chloro-2-(3,3-dioxido-3-thia-8-azabicyclo[3.2.1]octan-8-yl)pyrimidin-4-yl)amino)-2-cyclopropyl-7-methyl-1,2,3,4-tetrahydro-[1,4]oxazepino[2,3-c]quinolin-6(7H)-one]",234 nM,7.78,–,–,–
"Cn1c(=O)c2c(c3cc(Nc4nc(N5C6CCC5COC6)ncc4Cl)ccc31)N[C@@H](C1CC1)C(F)(F)CO2 [Example 12v, (S)-10-((2-(3-oxa-8-azabicyclo[3.2.1]octan-8-yl)-5-chloropyrimidin-4-yl)amino)-2-cyclopropyl-3,3-difluoro-7-methyl-1,2,3,4-tetrahydro-[1,4]oxazepino[2,3-c]quinolin-6(7H)-one]",8.32 nM,8.86,–,–,–
"Cn1c(=O)c2c(c3cc(Nc4nc(N5C6CCC5CS(=O)(=O)C6)ncc4Cl)ccc31)N[C@@H](C1CC1)C(F)(F)CO2 [Example 12w, (S)-10-((5-chloro-2-(3,3-dioxido-3-thia-8-azabicyclo[3.2.1]octan-8-yl)pyrimidin-4-yl)amino)-2-cyclopropyl-3,3-difluoro-7-methyl-1,2,3,4-tetrahydro-[1,4]oxazepino[2,3-c]quinolin-6(7H)-one]",11 nM,8.73,–,–,–
"Cn1c(=O)c2c(c3cc(Nc4nc(N5C6COCC5CC(O)C6)ncc4Cl)ccc31)N[C@@H](C1CC1)CCS2 (stereo partly drawn) [Example 15a, (R)-10-((5-chloro-2-((1R,5S,7S)-7-hydroxy-3-oxa-9-azabicyclo[3.3.1]-nonan-9-yl)pyrimidin-4-yl)amino)-2-cyclopropyl-7-methyl-1,2,3,4-tetrahydro-[1,4]thiazepino[2,3-c]quinolin-6(7H)-one]",28.8 nM,8.12,–,–,–
"(R)-10-((5-chloro-2-((3R,5S)-3-hydroxy-5- methylpiperidin-1-yl)pyrimidin-4-yl)amino)-2-cyclopropyl-7- methyl-1,2,3,4-tetrahydro-[1,4]oxazepino[2,3-c]quinolin-6(7H)-one or (R)-10-((5-chloro-2-((3S,5R)-3-hydroxy-5-methylpiperidin-1- yl)pyrimidin-4-yl)amino)-2-cyclopropyl-7-methyl-1,2,3,4-tetrahydro- [1,4]oxazepino[2,3-c]quinolin-6(7H)-one: formic acid (1:2) [Example 12c]",–,8.01,7.83,–,–
"(R)-10-((5-chloro-2-((3S,5R)-3-hydroxy-5- methylpiperidin-1-yl)pyrimidin-4-yl)amino)-2-cyclopropyl-7- methyl-1,2,3,4-tetrahydro-[1,4]oxazepino[2,3-c]quinolin-6(7H)-one or (R)-10-((5-chloro-2-((3R,5S)-3-hydroxy-5-methylpiperidin-1- yl)pyrimidin-4-yl)amino)-2-cyclopropyl-7-methyl-1,2,3,4-tetrahydro- [1,4]oxazepino[2,3-c]quinolin-6(7H)-one: formic acid (1:1) [Example 12d]",–,7.74,–,–,7.06

# Continued, in another order:
IC50 [1],HTRF avg pIC50 (1 nM) [2],SUDHL4 avg pDC50 [3],IC50 ([2]; HTRF avg pIC50 (1 nM)),Compound,NanoBRET cell avg pIC50 [1]
–,–,–,2.63 nM,"Cn1c(=O)c2c(c3cc(Nc4nc(N5CC6CCC(C5)O6)ncc4Cl)ccc31)N[C@@H](C1CC1)C(F)(F)CO2 [Example 12u, (S)-10-((2-(8-oxa-3-azabicyclo[3.2.1]octan-3-yl)-5-chloropyrimidin-4-yl)amino)-2-cyclopropyl-3,3-difluoro-7-methyl-1,2,3,4-tetrahydro-[1,4]oxazepino[2,3-c]quinolin-6(7H)-one]",7.83
145 nM,8.20,–,–,"Cn1c(=O)c2c(c3cc(Nc4nc(N5CC(F)(F)C[C@@H]5CO)ncc4Cl)ccc31)N[C@@H](C1CC1)C(F)(F)CO2 [Example 12x, (S)-10-((5-chloro-2-((R)-4,4-difluoro-2-(hydroxymethyl)pyrrolidin-1-yl)pyrimidin-4-yl)amino)-2-cyclopropyl-3,3-difluoro-7-methyl-1,2,3,4-tetrahydro-[1,4]oxazepino[2,3-c]quinolin-6(7H)-one]",–
